Assay [1] concerns the target T1, Serotonin 3 (5-HT3) receptor (Rattus norvegicus) (UniProt P35563+Q9JJ16). In words: Antagonism of 5-HT-induced Von Bezold-Jarisch reflex in rat after intravenous administration of 30 ug/kg of HT (5-hydroxytryptamine 3 receptor antagonism). Format: functional, organism-based.
Assay [2] deals with T2, Serotonin 3 (5-HT3) receptor (Rattus norvegicus, UniProt P35563+Q9JJ16).
T2 sequence (P35563 whole entry): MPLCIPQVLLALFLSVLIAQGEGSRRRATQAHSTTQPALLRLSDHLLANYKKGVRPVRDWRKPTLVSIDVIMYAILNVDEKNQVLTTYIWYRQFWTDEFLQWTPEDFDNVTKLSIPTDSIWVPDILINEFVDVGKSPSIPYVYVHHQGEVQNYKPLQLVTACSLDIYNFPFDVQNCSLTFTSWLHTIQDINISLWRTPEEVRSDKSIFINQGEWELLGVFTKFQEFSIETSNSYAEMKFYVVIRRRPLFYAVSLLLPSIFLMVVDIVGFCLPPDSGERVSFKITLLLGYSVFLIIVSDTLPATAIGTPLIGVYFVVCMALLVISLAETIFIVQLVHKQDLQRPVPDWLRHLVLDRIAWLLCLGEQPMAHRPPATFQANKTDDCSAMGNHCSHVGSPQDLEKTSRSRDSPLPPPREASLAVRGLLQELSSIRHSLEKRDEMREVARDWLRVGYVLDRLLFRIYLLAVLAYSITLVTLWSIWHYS
T2 sequence (Q9JJ16 whole entry): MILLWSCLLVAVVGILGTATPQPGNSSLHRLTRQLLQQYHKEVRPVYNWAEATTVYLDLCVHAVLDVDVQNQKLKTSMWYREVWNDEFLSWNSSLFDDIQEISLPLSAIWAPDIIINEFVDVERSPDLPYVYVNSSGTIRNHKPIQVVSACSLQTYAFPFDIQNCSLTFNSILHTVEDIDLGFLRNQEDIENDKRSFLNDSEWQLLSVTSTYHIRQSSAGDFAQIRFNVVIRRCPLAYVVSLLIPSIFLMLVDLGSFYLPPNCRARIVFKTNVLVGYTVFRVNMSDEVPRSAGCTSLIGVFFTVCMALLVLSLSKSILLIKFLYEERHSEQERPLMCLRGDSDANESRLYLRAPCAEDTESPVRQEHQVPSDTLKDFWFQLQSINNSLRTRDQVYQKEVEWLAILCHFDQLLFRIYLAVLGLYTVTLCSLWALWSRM
The assay can be described thus: Inhibition of 5-HT (1 ug/mL) induced depolarization in rat vagus nerve (5-hydroxytryptamine 3 receptor antagonism). The assay is classed as functional, tissue-based.

Assay [3] concerns the target T2, Serotonin 3 (5-HT3) receptor. In words: Inhibition of [3H]GR-65630 binding to rat cortical membrane serotonin 3 receptor.
Assay [4] concerns the target T1, Serotonin 3 (5-HT3) receptor (Rattus norvegicus). In words: Ability to antagonise the 5-HT- induced Von Bezold-Jarisch reflex in the rat after intravenous administration of 30 ug/kg of HT (5-hydroxytryptamine 3 receptor). Format: functional, organism-based.
Assay [5] deals with T2, Serotonin 3 (5-HT3) receptor. In words: Tested for inhibition of binding of [3H]GR-65630 to rat cortical membranes, expressed as IC50. Format: cell membranes, Membrane.
Assay [6] addresses T3, 5-hydroxytryptamine receptor 1A (Homo sapiens, UniProt P08908).
T3 sequence (P08908 whole entry): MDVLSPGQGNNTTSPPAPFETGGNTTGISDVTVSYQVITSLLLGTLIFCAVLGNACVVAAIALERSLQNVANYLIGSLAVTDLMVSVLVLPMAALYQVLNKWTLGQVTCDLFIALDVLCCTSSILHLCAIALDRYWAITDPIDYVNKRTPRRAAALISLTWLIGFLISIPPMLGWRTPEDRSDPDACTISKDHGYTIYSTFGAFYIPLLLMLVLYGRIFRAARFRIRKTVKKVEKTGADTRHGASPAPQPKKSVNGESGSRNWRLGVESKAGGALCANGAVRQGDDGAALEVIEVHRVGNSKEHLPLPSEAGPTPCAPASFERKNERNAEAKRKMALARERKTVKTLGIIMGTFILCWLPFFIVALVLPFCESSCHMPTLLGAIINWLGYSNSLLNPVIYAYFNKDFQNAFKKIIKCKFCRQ
In words: Tested for binding affinity for 5-hydroxytryptamine 1A receptor.

In assay [7] the target is Serotonin 2 (5-HT2) receptor (Homo sapiens, UniProt P41595+P28223+P28335). In words: Tested for binding affinity for 5-hydroxytryptamine 2 receptor. Format: protein assay.
Assay [8] deals with T4, D(2) dopamine receptor (Homo sapiens, UniProt P14416). In words: Tested for binding affinity for Dopamine D2 receptors.
Assay [9] has as its target T4, D(2) dopamine receptor. The assay can be described thus: Tested for binding affinity for Dopamine D2 receptor.

Broadly, the ED50 is the dose that gives a 50% effect, or the effect in half of the subjects. The term IC50 denotes the point on the concentration scale where inhibition reaches its midpoint. Read a high IC50 as a need for much substance.

Molecules are shown by their SMILES.

T4 sequence (P14416 whole entry): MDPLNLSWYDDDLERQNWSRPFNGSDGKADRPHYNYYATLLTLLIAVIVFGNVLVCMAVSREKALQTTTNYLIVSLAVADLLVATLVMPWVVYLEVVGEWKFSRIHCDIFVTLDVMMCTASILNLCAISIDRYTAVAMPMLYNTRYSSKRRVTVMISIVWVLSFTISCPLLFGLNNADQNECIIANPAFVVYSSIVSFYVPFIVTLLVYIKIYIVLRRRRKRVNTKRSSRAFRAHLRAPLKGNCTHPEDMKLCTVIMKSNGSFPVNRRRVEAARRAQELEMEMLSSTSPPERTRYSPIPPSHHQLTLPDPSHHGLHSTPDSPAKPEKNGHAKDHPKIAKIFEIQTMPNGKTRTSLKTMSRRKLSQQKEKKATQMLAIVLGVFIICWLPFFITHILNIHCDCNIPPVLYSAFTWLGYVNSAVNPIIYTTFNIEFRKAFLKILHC

In turn, `CN1[C@@H]2CC[C@H]1C[C@@H](OC(=O)c1c[nH]c3ccccc13)C2` [TROPISETRON] showed a 50% effective dose (ED50) in assay [1] of 0.5 µg/kg. In addition, the IC50 in assay [2] amounted to 1.4 nM; in assay [3], 3.1 nM.
In [1], `CN1C2CCCC1CC(NC(=O)c1cnn3ccccc13)C2` (stereo not given) returned an ED50 of 5 µg/kg. Moreover, the values for the IC50 in assay [2] and in assay [3] were 300 nM and 170 nM, respectively.
Consider `CN1C2CCCC1CC(NC(=O)c1cnn3ncccc13)C2` (stereo not given), for which the ED50 in [4] was > 100 µg/kg. The same molecule returned an IC50 in [5] of 818 nM.
Turning to `CN1C2CCC1CC(OC(=O)c1cnn3ccccc13)C2` (stereo not given), the ED50 in [1] came to 2 µg/kg. The IC50 is > 10000 nM in [6], > 10000 nM in assay [7], > 10000 nM in assay [8] and 28 nM in [3].
Take `Cc1nn2ccccc2c1C(=O)NC1CC2CCCC(C1)N2C` (stereo not given): it took a dose of 6 µg/kg to reach the 50% effect level in assay [1] (ED50). Further, the IC50 in [2] was determined as 100 nM; in [3], 64 nM.
The molecule `O=C(N[C@H]1CN2CCC1C2)c1cnn2ccccc12` (stereo not given in full) registered a median effective dose (ED50) in assay [1] of 2 µg/kg. The IC50 in assay [2] amounted to 124 nM; in assay [3], 52 nM.
Consider `Cc1nn2ncccc2c1C(=O)NC1CC2CCCC(C1)N2C` (stereo not given), for which, in assay [4], the ED50 was > 50 µg/kg. Besides, the IC50 in [3] is > 300 nM.
`O=C(NC1CN2CCC1CC2)c1cnn2ccccc12` (stereo not given) had an ED50 in assay [1] of 1 µg/kg. Also, the IC50 in assay [2] came out at 83 nM; in [3] it was 75 nM.
In [4], `Cc1nn2ncccc2c1C(=O)NC1CC2CCC(C1)N2C` (stereo not given) came in with an ED50 of 50 µg/kg. In assay [3], this molecule registered an IC50 of 122 nM.
`Cc1nn2ccccc2c1C(=O)NC1CC2CCC(C1)N2C` (stereo not given) came in with an ED50 in assay [4] of 1.2 µg/kg. Besides, the IC50 is 42 nM in assay [2] and 26 nM in assay [3].
Regarding `CN1C2CCC1CC(NC(=O)c1cnn3ncccc13)C2` (stereo not given), the 50% effect level in assay [1] (ED50) was put at a dose of 30 µg/kg. The molecule also displayed an IC50 in assay [3] of 429 nM.
`O=C(N[C@@H]1CN2CC[C@@H]1C2)c1cnn2ccccc12` displayed an ED50 in [1] of 8 µg/kg. The IC50 is 419 nM in assay [2] and 72 nM in assay [3].
`CN1C2CCC1CC(NC(=O)c1cnn3ccccc13)C2` (stereo not given) came in with an ED50 in assay [1] of 0.74 µg/kg. Moreover, the IC50 in assay [6] was > 10000 nM; in [7] it was > 10000 nM; in assay [2] it was 105 nM; in assay [9], > 10000 nM; in assay [3], 34 nM.

Source of the values: ChEMBL document CHEMBL1127772, “Pyrazolo[1,5-a]pyridines and pyrazolo[1,5-b]pyridazines as 5ht3-antagonists” (Bioorg Med Chem Lett, 1994).
